# Structures can show the parent of a compound that is named as a salt.
# Biological target: Sphingosine 1-phosphate receptor 1 (Homo sapiens, UniProt P21453)
# Test: S1P1 agonism potentiation – cell-based, potentiator mode, 60K MLSMR set, dose response (AID 466)
# Conditions: not given
# Chain of Sphingosine 1-phosphate receptor 1 (P21453 whole entry): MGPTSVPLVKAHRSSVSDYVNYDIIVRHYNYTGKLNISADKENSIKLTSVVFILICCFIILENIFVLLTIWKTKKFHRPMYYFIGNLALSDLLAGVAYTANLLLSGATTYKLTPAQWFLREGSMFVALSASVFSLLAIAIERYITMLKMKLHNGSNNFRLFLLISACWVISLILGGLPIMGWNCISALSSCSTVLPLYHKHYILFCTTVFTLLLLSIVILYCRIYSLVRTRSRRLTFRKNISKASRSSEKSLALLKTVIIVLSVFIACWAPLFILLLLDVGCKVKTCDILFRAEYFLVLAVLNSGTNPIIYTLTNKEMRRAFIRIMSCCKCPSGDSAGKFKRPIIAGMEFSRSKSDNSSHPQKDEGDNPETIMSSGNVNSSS
row,SMILES,EC50 [µM]
1,"CCn1nc(-c2ccccc2)nc2c(=O)n(C)c(=O)nc1-2 [1-Ethyl-6-methyl-3-phenyl-1H-pyrimido[5,4-e][1,2,4]triazine-5,7-dione]",4.29
2,"Cc1cc(C(=O)CSc2nnnn2C)c(C)n1-c1cccc(F)c1 [1-[1-(3-fluorophenyl)-2,5-dimethyl-3-pyrrolyl]-2-[(1-methyl-5-tetrazolyl)thio]ethanone]",1.88
3,"COc1ccc(-n2c(C)cc(C(=O)CSc3nnc(-c4cccs4)o3)c2C)cc1 [1-[1-(4-methoxyphenyl)-2,5-dimethyl-3-pyrrolyl]-2-[(5-thiophen-2-yl-1,3,4-oxadiazol-2-yl)thio]ethanone]",1.96
4,"Cc1csc(SCC(=O)c2cc(C)n(Cc3cccs3)c2C)n1 [1-[2,5-dimethyl-1-(2-thenyl)pyrrol-3-yl]-2-[(4-methylthiazol-2-yl)thio]ethanone]",7.01
5,"Cc1ccc(-n2c(C)cc(C(=O)CSc3nnnn3C)c2C)cc1 [1-[2,5-dimethyl-1-(4-methylphenyl)-3-pyrrolyl]-2-[(1-methyl-5-tetrazolyl)thio]ethanone]",6.1
6,"Cc1cc(C)n2nc(SCC(=O)c3cc(C)n(-c4cc(C)on4)c3C)nc2n1 [1-[2,5-dimethyl-1-(5-methyl-1,2-oxazol-3-yl)pyrrol-3-yl]-2-[(5,7-dimethyl-[1,2,4]triazolo[1,5-a]pyrimidin-2-yl)sulfanyl]ethanone]",5.63
7,CCOc1ccc(-c2nc(CSCC(=O)N3CCN(c4cccc(OC)c4)CC3)c(C)o2)cc1 [1-[4-(3-methoxyphenyl)piperazino]-2-[(5-methyl-2-p-phenetyl-oxazol-4-yl)methylthio]ethanone],7.42
8,"CC(C)(CC(=O)N1CCN(c2ccc(Cl)cc2)CC1)CC1=NS(=O)(=O)c2ccccc2N1 [1-[4-(4-chlorophenyl)-1-piperazinyl]-4-(1,1-dioxo-4H-1,2,4-benzothiadiazin-3-yl)-3,3-dimethyl-1-butanone]",9.93
9,"Cc1nnc(SCC(=O)N2CCC(c3noc4ccc(F)cc34)CC2)s1 [1-[4-(5-fluoranyl-1,2-benzoxazol-3-yl)piperidin-1-yl]-2-[(5-methyl-1,3,4-thiadiazol-2-yl)sulfanyl]ethanone]",8.2
10,"Fc1ccccc1COc1ccc(C=Nn2cnnc2)cc1 [1-[4-[(2-fluorophenyl)methoxy]phenyl]-N-(1,2,4-triazol-4-yl)methanimine]",4.74
11,"Fc1ccc(COc2ccc(C=Nn3cnnc3)cc2)cc1 [1-[4-[(4-fluorophenyl)methoxy]phenyl]-N-(1,2,4-triazol-4-yl)methanimine]",6.53
12,"Nc1nnnn1N=C/C(Br)=C/c1ccccc1 [1-[[(Z)-2-bromanyl-3-phenyl-prop-2-enylidene]amino]-1,2,3,4-tetrazol-5-amine]",> 10
13,"CCCCc1ccc(C2C(C#N)C(=N)SC(=N)C2C#N)s1 (configuration not stated) [2,6-bis(azanyl)-4-(5-butylthiophen-2-yl)-4H-thiopyran-3,5-dicarbonitrile]",13.7
14,"COCCn1c(C)cc(C(=O)CSc2nc3ccccc3o2)c1C [2-(1,3-benzoxazol-2-ylsulfanyl)-1-[1-(2-methoxyethyl)-2,5-dimethyl-pyrrol-3-yl]ethanone]",> 95
15,"CCCCn1nnnc1SCC(=O)c1ccc(C)c(C)c1 [2-(1-Butyl-1H-tetrazol-5-ylsulfanyl)-1-(3,4-dimethyl-phenyl)-ethanone]",6.19
16,"CCC(C)c1ccc2oc(-c3ccc(NC(=O)Cn4cnc5c(=O)n(C)c(=O)n(C)c54)cc3)nc2c1 (configuration not stated) [2-(2,6-diketo-1,3-dimethyl-purin-9-yl)-N-[4-(5-sec-butyl-1,3-benzoxazol-2-yl)phenyl]acetamide]",1.59
17,"Clc1ccc(OCc2nnc(-c3ccccc3Br)o2)c(Cl)c1 [2-(2-bromophenyl)-5-[(2,4-dichlorophenoxy)methyl]-1,3,4-oxadiazole]",> 95

# Now from value to compound:
row,EC50 [µM],SMILES
1,> 30,"O=C(C1CCC1)N1CCc2cc(S(=O)(=O)Nc3ccc4c(c3)OCCO4)ccc21 [1-(cyclobutanecarbonyl)-N-(2,3-dihydro-1,4-benzodioxin-6-yl)-2,3-dihydroindole-5-sulfonamide]"
2,9.32,"Cc1cc(C(=O)CSc2nnc(-c3ccco3)o2)c(C)n1-c1ccc2c(c1)OCCO2 [1-[1-(2,3-dihydro-1,4-benzodioxin-6-yl)-2,5-dimethyl-3-pyrrolyl]-2-[[5-(2-furanyl)-1,3,4-oxadiazol-2-yl]thio]ethanone]"
3,7.23,CC(Oc1ccccc1Br)C(=O)N1CCc2ccccc21 (configuration not stated) [1-[2-(2-bromophenoxy)propanoyl]indoline]
4,9.88,"O=C(NCc1ccco1)C1CCN(C(=O)c2cc3sccc3n2Cc2ccc(Cl)cc2)CC1 [1-[4-(4-chlorobenzyl)thieno[3,2-b]pyrrole-5-carbonyl]-N-(2-furfuryl)isonipecotamide]"
5,3.83,"COc1ccc(C(c2c(O)ccc3ccccc23)N2CCOCC2)c(OC)c1 (configuration not stated) [1-[(2,4-dimethoxyphenyl)-(4-morpholinyl)methyl]-2-naphthalenol]"
6,2.6,"Cc1ccc(-c2csc3ncnc(Sc4nnc(CN5CCCCCC5=O)o4)c23)cc1 [1-[[5-[5-(4-methylphenyl)thieno[2,3-d]pyrimidin-4-yl]sulfanyl-1,3,4-oxadiazol-2-yl]methyl]azepan-2-one]"
7,> 30,"COc1cc2c(cc1OC)C(C)N(C(=O)c1cc3ccccc3o1)CC2 (configuration not stated) [1-benzofuran-2-yl-(6,7-dimethoxy-1-methyl-3,4-dihydro-1H-isoquinolin-2-yl)methanone]"
8,> 95,O=C(NCc1ccc2c(c1)OCO2)C1CC(=O)N(C2CCCCCCC2)C1 (configuration not stated) [1-cyclooctyl-5-keto-N-piperonyl-pyrrolidine-3-carboxamide]
9,1.56,"Cn1c(-c2c(N)n(C3CCCC3)c3nc4ccccc4nc23)nc2ccccc21 [1-cyclopentyl-3-(1-methyl-2-benzimidazolyl)-2-pyrrolo[3,2-b]quinoxalinamine]"
10,3.31,C=CS(=O)(=O)c1ccc(Oc2ccc(S(=O)(=O)C=C)cc2)cc1 [1-ethenylsulfonyl-4-(4-ethenylsulfonylphenoxy)benzene]
11,4.14,"O=C(c1ccccc1)C(CCC(CN1CCOCC1)C(=O)c1ccccc1)CN1CCOCC1 (configuration not stated) [2,5-bis(4-morpholinylmethyl)-1,6-diphenylhexane-1,6-dione;hydrochloride]"
12,1.25,"O=C(CSc1nc2ccccc2o1)Nc1ccc(N2CCOCC2)c(Cl)c1 [2-(1,3-benzoxazol-2-ylsulfanyl)-N-(3-chloranyl-4-morpholin-4-yl-phenyl)ethanamide]"
13,> 30,"CC1CCc2nc(NC(=O)CSc3nc4ccccc4o3)sc2C1 (configuration not stated) [2-(1,3-benzoxazol-2-ylsulfanyl)-N-(6-methyl-4,5,6,7-tetrahydro-1,3-benzothiazol-2-yl)acetamide]"

# Same assay, conditions: inactive by the depositor's call
row,SMILES,EC50 [µM]
1,COc1ccc(-n2c(C)c(C(C)=O)c3cc(O)ccc32)cc1 [1-[1-(4-methoxyphenyl)-2-methyl-5-oxidanyl-indol-3-yl]ethanone],24.2
2,"CCN(CC)c1ccc(-n2c(C)c(C(C)=O)c(C(C)=O)c2C)cc1 [1-[1-[4-(diethylamino)phenyl]-4-ethanoyl-2,5-dimethyl-pyrrol-3-yl]ethanone]",10.4
3,"Cc1ccc(OCCn2cc(C(=N)NO)c3ccccc32)cc1C [1-[2-(3,4-dimethylphenoxy)ethyl]-N'-hydroxy-1H-indole-3-carboximidamide]",11.2
4,CC(=O)c1ccc(N2CCN(c3ccc(C(F)(F)F)cn3)CC2)cc1 [1-[4-[4-[5-(trifluoromethyl)-2-pyridinyl]-1-piperazinyl]phenyl]ethanone],37
5,"CC(=O)N1C=CN(C(C)=O)C(c2cn(C)c3ccccc23)C1c1cn(C)c2ccccc12 (configuration not stated) [1-[4-acetyl-2,3-bis(1-methyl-3-indolyl)-2,3-dihydropyrazin-1-yl]ethanone]",20.9
6,"CCc1ccc(-c2nc(CSCC(=O)N3CCN(c4ccccn4)CC3)c(C)o2)cc1 [1-[({[2-(4-ethylphenyl)-5-methyl-1,3-oxazol-4-yl]methyl}thio)acetyl]-4-pyridin-2-ylpiperazine]",11.5
7,"Cc1cccc(-c2nc(CSCC(=O)N3CCN(c4ccccn4)CC3)c(C)o2)c1 [1-[({[5-methyl-2-(3-methylphenyl)-1,3-oxazol-4-yl]methyl}thio)acetyl]-4-pyridin-2-ylpiperazine]",12.2
8,CCCCCn1c(=O)c(C(=O)NCc2ccncc2)c(O)c2ccccc21 [1-amyl-2-hydroxy-4-keto-N-(4-pyridylmethyl)quinoline-3-carboxamide],24.4
9,"Cc1nn(Cc2ccccc2)c(C)c1C(=O)OCC(=O)c1cc(C)n(C2CC2)c1C [1-benzyl-3,5-dimethyl-pyrazole-4-carboxylic acid [2-(1-cyclopropyl-2,5-dimethyl-pyrrol-3-yl)-2-keto-ethyl] ester]",15.6
10,"CCn1nc(-c2cccs2)nc2c(=O)n(C)c(=O)nc1-2 [1-ethyl-6-methyl-3-thiophen-2-yl-pyrimido[5,4-e][1,2,4]triazine-5,7-dione]",31.8
11,"COc1ccc(-n2c(C)cc(C(=O)COC(=O)Cn3cnc4ccccc43)c2C)cc1 [2-(1-benzimidazolyl)acetic acid [2-[1-(4-methoxyphenyl)-2,5-dimethyl-3-pyrrolyl]-2-oxoethyl] ester]",11.6
12,"CCOC(=O)c1ccc2nc(NC(=O)c3ccco3)sc2c1 [2-(2-furoylamino)-1,3-benzothiazole-6-carboxylic acid ethyl ester]",18.7

# Second part, the compound after the results:
row,EC50 [µM],SMILES
1,10.2,O=C(Nc1ccc(C(F)(F)F)cc1)C1CCCN1S(=O)(=O)c1cccc2cccnc12 (configuration not stated) [1-(8-quinolinylsulfonyl)-N-[4-(trifluoromethyl)phenyl]-2-pyrrolidinecarboxamide]
2,13.8,"O=C(C1CC1)N1CCc2cc(S(=O)(=O)NCC3COc4ccccc4O3)ccc21 (configuration not stated) [1-(cyclopropanecarbonyl)-N-(2,3-dihydro-1,4-benzodioxin-3-ylmethyl)-2,3-dihydroindole-5-sulfonamide]"
3,12.1,CCCC(=O)c1ccc(N2CCN(C(=O)c3ccccc3Br)CC2)c(F)c1 [1-[4-[4-(2-bromobenzoyl)piperazin-1-yl]-3-fluorophenyl]butan-1-one]
4,13.4,"CC(=O)N1CCCc2cc(S(=O)(=O)NCCC3=CCCCC3)ccc21 [1-acetyl-N-(2-cyclohex-1-en-1-ylethyl)-1,2,3,4-tetrahydroquinoline-6-sulfonamide]"
5,10.5,"Cc1nc(C)c(C(=O)Nc2ccc(Oc3ccccc3)cc2)o1 [2,4-dimethyl-N-(4-phenoxyphenyl)-1,3-oxazole-5-carboxamide]"

# Reference: BindingDB's records for doi:10.7270/Q2ZC817P (The Scripps Research Institute Molecular Screening Center, 2007)
